Source: US8946166B2, “Peptide-based compounds and compositions which inhibit muscle contraction” (Lipotec, S.A., priority 2009, dated 2015)

System: AChR clusters
Test: AChR clustering inhibition trial (agrin-induced AChR clusters in myotubes, α-bungarotoxin-tetramethylrhodamine staining, confocal quantification)
Format: cell-based
Conditions: peptide 10 μM; mouse myotubes; normalized to basal values of the medium

Substance	Percentage of AChR cluster inhibition [%]
Ac-L-Asp-L-Asp-L-Tyr-L-Tyr-L-Lys-L-Met-NH2	21.5
Ac-L-Glu-L-Asp-L-Arg-L-Phe-L-Arg-L-Leu-NH2	20.8
Ac-L-Asp-L-Asp-L-Tyr-L-Phe-L-Arg-L-Leu-NH2	33.8
H-L-Glu-L-Asp-L-Arg-L-Phe-L-Arg-L-Met-NH2	25.6
Ac-L-Glu-L-Asp-L-Tyr-L-Phe-L-Arg-L-Leu-NH2	30.8
Ac-L-Pro-L-Asp-L-Arg-L-Phe-L-Lys-L-Leu-NH2	46.1
Ac-L-Glu-L-Asp-L-Arg-L-Phe-L-Lys-L-Leu-NH2	23.7
Ac-L-Pro-L-Asp-L-Tyr-L-Phe-L-Lys-L-Leu-NH2	27.8
Ac-L-Pro-L-Asp-L-Tyr-L-Tyr-L-Lys-L-Met-NH2	40.7
Ac-L-Asp-L-Asp-L-Tyr-L-Tyr-L-Arg-L-Met-NH2	31.3
Palm-L-Pro-L-Asp-L-Tyr-L-Tyr-L-Lys-L-Leu-NH2	33.7
Palm-L-Glu-L-Asp-L-Tyr-L-Tyr-L-Arg-L-Leu-NH2	34.8
Ac-L-Pro-L-Asp-L-Tyr-L-Tyr-L-Arg-L-Leu-NH2	51.9
Ac-L-Glu-L-Asp-L-Tyr-L-Tyr-L-Arg-L-Leu-NH2	57.1
Ac-L-Pro-L-Asp-L-Tyr-L-Tyr-L-Arg-L-Met-NH2	61.1

Same assay, conditions: peptide 100 μM; mouse myotubes; normalized to basal values of the medium

Substance	Percentage of AChR cluster inhibition [%]
Ac-L-Pro-L-Asp-L-Tyr-L-Phe-L-Arg-L-Leu-NH—(CH2)15—CH3	27.8
Ac-L-Glu-L-Asp-L-Tyr-L-Phe-L-Arg-L-Leu-OH	33.8
Ac-L-Glu-L-Asp-L-Arg-L-Tyr-L-Arg-L-Leu-NH2	24.5
Ac-L-Glu-L-Asp-L-Arg-L-Phe-L-Arg-L-Met-OH	39.1
Ac-L-Pro-L-Asp-L-Arg-L-Tyr-L-Lys-L-Leu-NH2	43.6
Ac-L-Pro-L-Asp-L-Arg-L-Tyr-L-Arg-L-Leu-NH2	40.2
Palm-L-Glu-L-Asp-L-Tyr-L-Tyr-L-Arg-L-Met-NH2	68.5
Ac-L-Glu-L-Asp-L-Arg-L-Phe-L-Arg-L-Met-NH2	55.1
Ac-L-Pro-L-Asp-L-Tyr-L-Tyr-L-Lys-L-Leu-NH2	36.7
